Numbers after ± are expanded uncertainties.
Test: molar heat capacity at constant pressure; xn = mol fraction of the nth substance listed
Details: 101 kPa, Liquid

ClCCCCCCCl [1,6-dichlorohexane] + CCCCCCC
molar heat capacity at constant pressure [J/K/mol]
Details | x1 = 0.1033 | x1 = 0.2005 | x1 = 0.3004 | x1 = 0.397 | x1 = 0.5025 | x1 = 0.5978 | x1 = 0.7012 | x1 = 0.7975 | x1 = 0.8993 | x1 = 1
303.15 K | – | – | – | – | – | 235.31 ± 1.8 | 236.93 ± 1.8 | 238.61 ± 1.9 | 240.37 ± 1.9 | 242.06 ± 1.9
304.15 K | 228.19 ± 1.8 | 229.46 ± 1.8 | 230.7 ± 1.8 | 232.56 ± 1.8 | 234.04 ± 1.8 | 235.48 ± 1.8 | 237.2 ± 1.8 | 238.86 ± 1.9 | 240.64 ± 1.9 | 242.34 ± 1.9
305.15 K | 228.57 ± 1.8 | 229.83 ± 1.8 | 230.91 ± 1.8 | 232.74 ± 1.8 | 234.33 ± 1.8 | 235.88 ± 1.8 | 237.53 ± 1.8 | 239.21 ± 1.9 | 240.92 ± 1.9 | 242.62 ± 1.9
306.15 K | 228.88 ± 1.8 | 230.1 ± 1.8 | 231.36 ± 1.8 | 233.13 ± 1.8 | 234.4 ± 1.8 | 236.03 ± 1.8 | 237.84 ± 1.8 | 239.44 ± 1.9 | 241.2 ± 1.9 | 242.83 ± 1.9
307.15 K | 229.3 ± 1.8 | 230.51 ± 1.8 | 231.65 ± 1.8 | 233.51 ± 1.8 | 235.07 ± 1.8 | 236.5 ± 1.8 | 238.18 ± 1.8 | 239.76 ± 1.9 | 241.48 ± 1.9 | 243.21 ± 1.9
308.15 K | 229.71 ± 1.8 | 230.91 ± 1.8 | 232.08 ± 1.8 | 233.76 ± 1.8 | 235.33 ± 1.8 | 236.85 ± 1.8 | 238.49 ± 1.9 | 240.12 ± 1.9 | 241.83 ± 1.9 | 243.49 ± 1.9
309.15 K | 230.05 ± 1.8 | 231.19 ± 1.8 | 232.35 ± 1.8 | 234.03 ± 1.8 | 235.45 ± 1.8 | 237.17 ± 1.8 | 238.74 ± 1.9 | 240.37 ± 1.9 | 242.06 ± 1.9 | 243.73 ± 1.9
310.15 K | 230.4 ± 1.8 | 231.55 ± 1.8 | 232.73 ± 1.8 | 234.35 ± 1.8 | 235.77 ± 1.8 | 237.52 ± 1.8 | 239.07 ± 1.9 | 240.64 ± 1.9 | 242.36 ± 1.9 | 244 ± 1.9
311.15 K | 230.86 ± 1.8 | 231.97 ± 1.8 | 233.11 ± 1.8 | 234.88 ± 1.8 | 236.41 ± 1.8 | 237.89 ± 1.8 | 239.43 ± 1.9 | 241.08 ± 1.9 | 242.73 ± 1.9 | 244.35 ± 1.9
312.15 K | 231.16 ± 1.8 | 232.33 ± 1.8 | 233.45 ± 1.8 | 235.01 ± 1.8 | 236.75 ± 1.8 | 238.16 ± 1.8 | 239.72 ± 1.9 | 241.32 ± 1.9 | 243.02 ± 1.9 | 244.68 ± 1.9
313.15 K | 231.55 ± 1.8 | 232.68 ± 1.8 | 233.79 ± 1.8 | 235.43 ± 1.8 | 236.93 ± 1.8 | 238.39 ± 1.9 | 240.06 ± 1.9 | 241.64 ± 1.9 | 243.28 ± 1.9 | 244.91 ± 1.9
